The nature of assay [1]: Binding constant to TAR at 1.107e-4 M concentration.
Assay [2] can be described thus: Percent inhibition of SIV-induced syncytium in CEM174 cells. The assay is classed as functional.
Assay [3] can be described thus: Effective concentration required to inhibit SIV induced syncytium in CEM174 cells. The assay is classed as functional, cell-based.
Assay [4] can be described thus: Binding constant to TAR at 0.393e-4 M concentration.
Assay [5] can be described thus: Binding constant to TAR at 0.357e-4 M concentration.
Assay [6] can be described thus: Binding constant to TAR at 0.814e-4 M concentration.

For orientation: Inhibition means the change of the read-out against control, counted positive when it falls. One may read the EC50 as the concentration giving half of the maximal effect.

As to `NCCCNC(=O)c1cc2ccccc2cn1`, in assay [1], the K worked out at 15400. In addition, the Inhibition in assay [2] was determined as 58.7%. Besides, the EC50 in assay [3] was 8.74 µM.

`N=C(N)NCCCNC(=O)c1cc2ccccc2cn1.O=S(O)O`: the K in assay [4] is 169000. The compound further displayed an Inhibition in assay [2] of 60.7%. This compound had an EC50 in assay [3] of 3.92 µM.

For `N=C(N)NCCNC(=O)c1cc2ccccc2cn1.O=S(O)O`, the Inhibition in assay [2] is on record as 56.2%. A half-maximal response in assay [3] (EC50) required 6.86 µM. For the same compound, in assay [5], the K was found to be 207000.

`NCCNC(=O)c1cc2ccccc2cn1` returned an Inhibition in assay [2] of 44.2%. Besides, the EC50 in assay [3] worked out at 12.9 µM. This compound also came in with a K in assay [6] of 33000.
